# Data taken from ChEMBL document CHEMBL5113390, “Design, synthesis and antitumor evaluation of novel 1H-indole-2-carboxylic acid derivatives targeting 14-3-3η protein” (Eur J Med Chem, 2022).
# Test system: Bel-7402
# Experiment: Antiproliferative activity against human Bel-7402 cells assessed as reduction in cell viability incubated for 72 hrs by MTT assay
# Assay type: functional, cell-based
# Conditions: Bel-7402, 72 h
row,IC50,SMILES
1,5.9 µM,COc1cccc(CNCc2c(C(=O)O)n(Cc3ccccc3)c3cc(C(C)C)ccc23)c1
2,> 50 µM,COc1cccc(CNCc2c(C(=O)O)n(Cc3ccc(F)cc3)c3ccccc23)c1
3,6.03 µM,CNC(=O)c1cc(Oc2ccc(NC(=O)Nc3ccc(Cl)c(C(F)(F)F)c3)cc2)ccn1 [SORAFENIB]
4,52.9 µM,COc1ccc(Cn2c(C(=O)O)c(CNCc3cccc(OC)c3)c3ccccc32)cc1
5,9.27 µM,COc1ccc(Cn2c(C(=O)O)c(CNCc3cccc(O)c3)c3ccc(C(C)C)cc32)cc1
6,5.67 µM,COc1cccc(CNCc2c(C(=O)O)n(Cc3ccc(C)cc3)c3cc(C)ccc23)c1
7,> 50 µM,COc1cccc(CNCc2c(C(=O)O)n(Cc3ccccc3F)c3cc(C)ccc23)c1
8,33 µM,COc1ccc(Cn2c(C(=O)O)c(CN(C)Cc3cccc(OC)c3)c3ccc(C)cc32)cc1
9,58.9 µM,CCNC(=O)c1c(CNCc2ccc(OC)cc2)c2ccccc2n1Cc1ccc(OC)cc1
10,> 50 µM,COc1ccc(Cn2c(C(=O)O)c(CNCc3ccc(O)c(OC)c3)c3ccccc32)cc1
11,19.8 µM,COc1ccc(Cn2c(C(=O)O)c(CNCc3cccc(O)c3)c3ccc(C)cc32)cc1
12,21.5 µM,COc1cccc(CNCc2c(C(=O)O)n(Cc3ccc(C)cc3)c3ccccc23)c1
13,> 50 µM,COc1ccc(Cn2c(C(=O)O)c(CNCc3cccc(OC)c3)c3ccc(C(F)F)cc32)cc1
14,> 50 µM,COc1ccc(Cn2c(C(=O)O)c(CNCc3cccc(OC)c3)c3ccc(C(F)(F)F)cc32)cc1

# Test system: SMMC-7721
# Experiment: Antiproliferative activity against human SMMC-7721 cells assessed as reduction in cell viability incubated for 72 hrs by MTT assay
# Assay type: functional, cell-based
# Conditions: SMMC-7721, 72 h
row,IC50,SMILES
1,3.53 µM,COc1cccc(CNCc2c(C(=O)O)n(Cc3ccccc3)c3cc(C(C)C)ccc23)c1
2,4.88 µM,CNC(=O)c1cc(Oc2ccc(NC(=O)Nc3ccc(Cl)c(C(F)(F)F)c3)cc2)ccn1 [SORAFENIB]
3,5.03 µM,COc1ccc(Cn2c(C(=O)O)c(CNCc3cccc(O)c3)c3ccc(C(C)C)cc32)cc1
4,3.44 µM,COc1cccc(CNCc2c(C(=O)O)n(Cc3ccc(C)cc3)c3cc(C)ccc23)c1
5,11 µM,COc1ccc(Cn2c(C(=O)O)c(CN(C)Cc3cccc(OC)c3)c3ccc(C)cc32)cc1
6,34.8 µM,COc1ccc(Cn2c(C(=O)O)c(CNCc3cccc(O)c3)c3ccc(C)cc32)cc1
7,6.27 µM,COc1cccc(CNCc2c(C(=O)O)n(Cc3ccc(C)cc3)c3ccccc23)c1

# Test system: SNU-387
# Experiment: Antiproliferative activity against human SNU-387 cells assessed as reduction in cell viability incubated for 72 hrs by MTT assay
# Assay type: functional, cell-based
# Conditions: SNU-387, 72 h
row,IC50,SMILES
1,5.09 µM,COc1cccc(CNCc2c(C(=O)O)n(Cc3ccccc3)c3cc(C(C)C)ccc23)c1
2,12.3 µM,CNC(=O)c1cc(Oc2ccc(NC(=O)Nc3ccc(Cl)c(C(F)(F)F)c3)cc2)ccn1 [SORAFENIB]
3,6.86 µM,COc1ccc(Cn2c(C(=O)O)c(CNCc3cccc(O)c3)c3ccc(C(C)C)cc32)cc1
4,5.29 µM,COc1cccc(CNCc2c(C(=O)O)n(Cc3ccc(C)cc3)c3cc(C)ccc23)c1
5,20.1 µM,COc1ccc(Cn2c(C(=O)O)c(CN(C)Cc3cccc(OC)c3)c3ccc(C)cc32)cc1
6,9.91 µM,COc1ccc(Cn2c(C(=O)O)c(CNCc3cccc(O)c3)c3ccc(C)cc32)cc1
7,14.3 µM,COc1cccc(CNCc2c(C(=O)O)n(Cc3ccc(C)cc3)c3ccccc23)c1

# Test system: HepG2
# Experiment: Antiproliferative activity against human HepG2 cells assessed as reduction in cell viability incubated for 72 hrs by MTT assay
# Assay type: functional, cell-based
# Conditions: HepG2, 72 h
row,IC50,SMILES
1,3.18 µM,COc1cccc(CNCc2c(C(=O)O)n(Cc3ccccc3)c3cc(C(C)C)ccc23)c1
2,3.3 µM,CNC(=O)c1cc(Oc2ccc(NC(=O)Nc3ccc(Cl)c(C(F)(F)F)c3)cc2)ccn1 [SORAFENIB]
3,4.92 µM,COc1ccc(Cn2c(C(=O)O)c(CNCc3cccc(O)c3)c3ccc(C(C)C)cc32)cc1
4,5.05 µM,COc1cccc(CNCc2c(C(=O)O)n(Cc3ccc(C)cc3)c3cc(C)ccc23)c1
5,15.4 µM,COc1ccc(Cn2c(C(=O)O)c(CN(C)Cc3cccc(OC)c3)c3ccc(C)cc32)cc1
6,4.52 µM,COc1ccc(Cn2c(C(=O)O)c(CNCc3cccc(O)c3)c3ccc(C)cc32)cc1
7,14 µM,COc1cccc(CNCc2c(C(=O)O)n(Cc3ccc(C)cc3)c3ccccc23)c1

# Test system: Hep 3B2
# Experiment: Antiproliferative activity against human Hep3B cells assessed as reduction in cell viability incubated for 72 hrs by MTT assay
# Assay type: functional, cell-based
# Conditions: not given
row,SMILES,IC50
1,COc1cccc(CNCc2c(C(=O)O)n(Cc3ccccc3)c3cc(C(C)C)ccc23)c1,4.11 µM
2,CNC(=O)c1cc(Oc2ccc(NC(=O)Nc3ccc(Cl)c(C(F)(F)F)c3)cc2)ccn1 [SORAFENIB],5.49 µM
3,COc1ccc(Cn2c(C(=O)O)c(CNCc3cccc(O)c3)c3ccc(C(C)C)cc32)cc1,6.6 µM
4,COc1cccc(CNCc2c(C(=O)O)n(Cc3ccc(C)cc3)c3cc(C)ccc23)c1,6.33 µM
5,COc1ccc(Cn2c(C(=O)O)c(CN(C)Cc3cccc(OC)c3)c3ccc(C)cc32)cc1,14.5 µM
6,COc1ccc(Cn2c(C(=O)O)c(CNCc3cccc(O)c3)c3ccc(C)cc32)cc1,11.8 µM
7,COc1cccc(CNCc2c(C(=O)O)n(Cc3ccc(C)cc3)c3ccccc23)c1,14.5 µM

# Test system: Bel7402/5-FU
# Experiment: Antiproliferative activity against human BEL-7402/5-FU cells overexpressing 14-3-3 eta assessed as reduction in cell viability incubated for 72 hrs by MTT assay
# Assay type: functional, cell-based
# Conditions: not given
row,IC50,SMILES
1,5.92 µM,COc1cccc(CNCc2c(C(=O)O)n(Cc3ccccc3)c3cc(C(C)C)ccc23)c1
2,13.3 µM,CNC(=O)c1cc(Oc2ccc(NC(=O)Nc3ccc(Cl)c(C(F)(F)F)c3)cc2)ccn1 [SORAFENIB]
3,15.2 µM,COc1ccc(Cn2c(C(=O)O)c(CNCc3cccc(O)c3)c3ccc(C(C)C)cc32)cc1
4,7.31 µM,COc1cccc(CNCc2c(C(=O)O)n(Cc3ccc(C)cc3)c3cc(C)ccc23)c1
5,7.47 µM,COc1ccc(Cn2c(C(=O)O)c(CN(C)Cc3cccc(OC)c3)c3ccc(C)cc32)cc1
6,> 50 µM,COc1ccc(Cn2c(C(=O)O)c(CNCc3cccc(O)c3)c3ccc(C)cc32)cc1
7,9.33 µM,COc1cccc(CNCc2c(C(=O)O)n(Cc3ccc(C)cc3)c3ccccc23)c1

# Molecular target: T1, 14-3-3 protein eta (Homo sapiens, UniProt Q04917)
# T1 sequence (Q04917 whole entry): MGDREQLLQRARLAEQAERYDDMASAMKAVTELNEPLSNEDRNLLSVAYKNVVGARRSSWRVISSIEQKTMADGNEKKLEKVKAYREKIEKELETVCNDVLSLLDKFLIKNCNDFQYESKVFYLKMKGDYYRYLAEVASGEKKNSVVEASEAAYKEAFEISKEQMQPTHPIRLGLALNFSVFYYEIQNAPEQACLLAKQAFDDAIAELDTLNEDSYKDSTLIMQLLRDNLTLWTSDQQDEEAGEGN
# Experiment: Binding affinity to 14-3-3 eta (unknown origin) assessed as dissociation constant by biolayer interferometry assay
# Conditions: not given
row,Kd,SMILES
1,55 µM,COc1cccc(CNCc2c(C(=O)O)n(Cc3ccccc3)c3cc(C(C)C)ccc23)c1
2,160 µM,COc1cccc(CNCc2c(C(=O)O)n(Cc3ccc(F)cc3)c3ccccc23)c1
3,22 µM,COc1ccc(Cn2c(C(=O)O)c(CNCc3cccc(O)c3)c3ccc(C(C)C)cc32)cc1
4,> 200 µM,COc1cccc(CNCc2c(C(=O)O)n(Cc3ccccc3F)c3cc(C)ccc23)c1
5,> 200 µM,COc1ccc(Cn2c(C(=O)O)c(CN(C)Cc3cccc(OC)c3)c3ccc(C)cc32)cc1
6,140 µM,COc1ccc(Cn2c(C(=O)O)c(CNCc3ccc(O)c(OC)c3)c3ccccc32)cc1
